# Where two headings read alike, the source gives them in different places.
# Experiments:
# pKa (66% aqueous DMF) = format: physicochemical
# Haemophilus influenzae = assay: Expanded H. influenzae Spectrum MIC (Table IV); format: cell-based
# [1] = system: β-lactamase, organism 1082E; assay: Stability to β-lactamase (Table V); format: biochemical; settings: lower numbers mean greater stability
# Bacteroides fragilis = assay: Expanded anaerobic Spectrum MIC (Table IV); format: cell-based
# [2] = system: β-lactamase, organism TEM; format: biochemical; settings: lower numbers mean greater stability
# [3] = system: β-lactamase, organism 1313G; assay: Stability to β-lactamase (Table V); format: biochemical; settings: lower numbers mean greater stability
# [4] = system: β-lactamase, organism 265A; assay: Stability to β-lactamase (Table V); format: biochemical; settings: lower numbers mean greater stability
# [5] = system: β-lactamase, organism PS185; assay: Stability to β-lactamase (Table V); format: biochemical; settings: lower numbers mean greater stability
# [6] = read-out: MIC mean, mean over strains
compound,measurement,setting,value
C=CCOC(=O)NC(C(=O)O)c1csc2ccccc12 (stereo not drawn) [N-Allyloxycarbonyl-(3-benzothienyl)glycine],pKa,pKa (66% aqueous DMF),5.7
N[C@@H](C(=O)N[C@@H]1C(=O)N2C(C(=O)O)=C(Cl)CS[C@H]12)c1ccccc1 [cefaclor],MIC,"Haemophilus influenzae; read-out: MIC Geometric Mean, geometric mean over strains",2 µg/mL
same,MIC,Haemophilus influenzae; [6],3 µg/mL
same,MIC,Haemophilus influenzae; strain 101,2 µg/mL
same,MIC,Haemophilus influenzae; strain 102,16 µg/mL
same,MIC,Haemophilus influenzae; strain 103,2 µg/mL
same,MIC,Haemophilus influenzae; strain 104,1 µg/mL
same,MIC,Haemophilus influenzae; strain 105,1 µg/mL
same,MIC,Haemophilus influenzae; strain 106,2 µg/mL
same,MIC,Haemophilus influenzae; strain 107,2 µg/mL
same,MIC,Haemophilus influenzae; strain 108,1 µg/mL
same,MIC,Haemophilus influenzae; strain 109,2 µg/mL
same,MIC,Haemophilus influenzae; strain 110,1 µg/mL
same,MIC,Haemophilus influenzae; strain 111,1 µg/mL
same,MIC,Haemophilus influenzae; strain 112,2 µg/mL
same,MIC,Haemophilus influenzae; strain 113,2 µg/mL
same,MIC,Haemophilus influenzae; strain 114,1 µg/mL
same,Stability to β-lactamase,[1],65
same,MIC,"Bacteroides fragilis; read-out: MIC Geometric mean, geometric mean over strains",32 µg/mL
same,MIC,Bacteroides fragilis; [6],39 µg/mL
same,MIC,Bacteroides fragilis; strain 180-821,64 µg/mL
same,MIC,Bacteroides fragilis; strain 10668,64 µg/mL
same,MIC,Bacteroides fragilis; strain 10683,16 µg/mL
same,MIC,Bacteroides fragilis; strain 10695,32 µg/mL
same,MIC,Bacteroides fragilis; strain 10732,16 µg/mL
same,MIC,Bacteroides fragilis; strain 10750,> 64 µg/mL
same,MIC,Bacteroides fragilis; strain 10774,> 64 µg/mL
same,MIC,Bacteroides fragilis; strain 10817,64 µg/mL
same,MIC,Bacteroides fragilis; strain 10837,> 64 µg/mL
same,MIC,Bacteroides fragilis; strain 107266,16 µg/mL
same,MIC,Bacteroides fragilis; strain 107268,16 µg/mL
same,MIC,Bacteroides fragilis; strain 108133,32 µg/mL
same,Stability to β-lactamase,[2],23
same,Stability to β-lactamase,[3],4605
same,Stability to β-lactamase,[4],138
same,Stability to β-lactamase,[5],71
